In ChEMBL document CHEMBL1201862, “PubChem BioAssay data set” (2004):
The source made the active and inactive calls.

How the values were obtained:
[1] = YAP1 overexpression rescue of CTGF inhibition – DLD1 cells, RT-qPCR, cherry-pick, mechanism study for YAP1 pathway inhibitor project, dose response (AID 1053127); assay type: functional, cell-based; settings: DLD-1
[2] = viability loss in HepG2 hepatoma cells – cell-based, cherry-picks, set 5, cytotoxicity control, dose response (AID 1053118); assay type: functional
[3] = viability loss in A549 lung cancer cells – cell-based, cherry-picks, […], cytotoxicity control, dose response (AID 1053119); assay type: functional
[4] = blockers of bursicon-stimulated LGR2 cAMP reporter – cell-based, HEK293, CRE-luciferase reporter, cherry pick, set 2, dose response (AID 743343); assay type: functional;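 note: transfected cells were stimulated with diluted bursicon conditioned medium after compound addition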
[5] = viability loss in HEK293 kidney cells – cell-based, cherry-picks, set 5, cytotoxicity control, dose response (AID 1053117); assay type: functional
[6] = blockade of melanocortin 4 receptor signaling – cell-based, plate reader, cherry pick, counter-screen for LGR2 antagonist project, dose response (AID 743444); assay type: functional;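 note: transfected HEK 293 cells stimulated with alpha-MSH peptide; potency of inhibitors of the alpha-MSH evoked signal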
[7] = A549 cell cytotoxicity, dose response, cytotoxicity control, plate reader, cherry-pick, antagonist series (AID 743412); assay type: functional, cell-based
[8] = blockers of FN fibrillogenesis by fibroblasts – AH1F cells, Alexa488-FN fluorescence, cherry-picks, dose response (AID 1035475); assay type: functional, cell-based
[9] = viability loss in HEK293 cells – cell-based, plate reader, cherry-picked samples, cytotoxicity control, dose response (AID 743446); assay type: functional
[10] = antimalarial activity against Dd2 parasites – SYBR Green fluorescence, erythrocytes, dry powder, set 2, dose response (AID 1159574); assay type: functional, cell-based
[11] = target: RNA-editing ligase 1, mitochondrial (Trypanosoma brucei brucei, UniProt P86926); assay: inhibition of trypanosome RNA editing ligase – biochemical, fluorescence, Trypanosoma brucei, dose response (AID 1117295); assay type: functional
[12] = Dd2 parasite growth inhibition in erythrocytes – SYBR Green, dry powder samples, set 9, dose response (AID 1159568); assay type: functional, cell-based
[13] = Dd2 malaria parasite growth inhibition potency – SYBR Green, dry powder samples, dose response (AID 1159566); assay type: functional, cell-based;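 note: potency for growth inhibition with lower SYBR green DNA signal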
[14] = growth inhibition of yeast DHODH-expressing 3D7 parasites – SYBR Green, dry powder samples, dose response (AID 1159570); assay type: functional, cell-based;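 note: parasite growth measured after 72 hours of compound exposure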
[15] = P. falciparum Dd2 growth inhibitors, dose response, SYBR Green, cherry-picked samples (AID 1159567); assay type: functional, cell-based
[16] = toxicity to human HepG2 hepatoma cells – cell-based, plate reader, dry powder samples, cytotoxicity control, dose response (AID 1159569); assay type: functional;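 note: inhibitor potency with signal falling toward the positive control level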
[17] = growth inhibition of PfATP4-mutant resistant parasites – NITD609-resistant line, SYBR Green, dry powder, dose response (AID 1159571); assay type: functional, cell-based;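 note: parasites synchronized at ring stage by sorbitol before testing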
[18] = TB: CFU replicating Measured in Microorganism System Using Imaging - 7108-05_Inhibitor_Dose_DryPowder_Activity_Set2.; assay type: functional
[19] = SNU-C1 cell viability reduction, dose response, CellTiter-Glo luminescence (AID 1117323); assay type: functional, cell-based
[20] = cytotoxicity toward Colo320 cells – cell-based, CellTiter-Glo luminescence, IC50, dose response (AID 1117334); assay type: functional; settings: COLO 320
[21] = RKO cell viability reduction, dose response, CellTiter-Glo luminescence (AID 1117322); assay type: functional
[22] = microbe, parasite or virus in culture; assay type: functional; settings: Mycobacterium tuberculosis
[23] = Potency on glucagon-like peptide 1 release, dose-response in NCI-H716 cell line, half maximal inhibitory concentration (AID 1117344); assay type: functional, cell-based
[24] = target: T1, Ubiquitin-conjugating enzyme E2 N (Homo sapiens, UniProt P61088); assay type: functional;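 note: Dose-response confirmation in a TR-FRET assay detecting UBC13-driven polyubiquitin chain formation, inhibition measured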
T1 sequence (P61088 whole entry): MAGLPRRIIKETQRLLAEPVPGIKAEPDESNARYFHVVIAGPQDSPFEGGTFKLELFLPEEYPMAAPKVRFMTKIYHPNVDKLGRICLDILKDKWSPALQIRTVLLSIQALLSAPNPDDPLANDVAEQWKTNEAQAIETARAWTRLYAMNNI

[25] = cytotoxicity toward HT-29 cells – cell-based, CellTiter-Glo luminescence, IC50, dose response (AID 1117330); assay type: functional
[26] = HCT116 cell viability decrease, GSK3B pretreatment – CellTiter-Glo, IC50, dose response (AID 1117339); assay type: functional; settings: HCT-116
[27] = cytotoxicity toward HCT116 cells – cell-based, CellTiter-Glo luminescence, IC50, dose response (AID 1117332); assay type: functional; settings: HCT-116
[28] = CellTiter-Glo luminescence survival assay, SW480 colon tumor line, concentration-response curve, half-maximal inhibitory concentration (AID 1117338); assay type: functional
[29] = Reduced DLD-1 viability, concentration-response, CellTiter-Glo luminescence (AID 1117352); assay type: functional
[30] = target: Heat shock protein HSP 90-alpha (Homo sapiens, UniProt P07900); assay type: functional, organism-based
[31] = glucagon-like peptide-1 release potency in STC-1, concentration-response, half-maximal inhibitory concentration in the STC-1 line (AID 1117345); assay type: functional, cell-based
[32] = rise of 4N DNA cells, HeLa – IC50, dose response (AID 1117351); assay type: functional, cell-based
[33] = rise of 2N DNA cells, HeLa – IC50, dose response (AID 1117349); assay type: functional, cell-based

Sequence of RNA-editing ligase 1, mitochondrial (P86926 whole entry): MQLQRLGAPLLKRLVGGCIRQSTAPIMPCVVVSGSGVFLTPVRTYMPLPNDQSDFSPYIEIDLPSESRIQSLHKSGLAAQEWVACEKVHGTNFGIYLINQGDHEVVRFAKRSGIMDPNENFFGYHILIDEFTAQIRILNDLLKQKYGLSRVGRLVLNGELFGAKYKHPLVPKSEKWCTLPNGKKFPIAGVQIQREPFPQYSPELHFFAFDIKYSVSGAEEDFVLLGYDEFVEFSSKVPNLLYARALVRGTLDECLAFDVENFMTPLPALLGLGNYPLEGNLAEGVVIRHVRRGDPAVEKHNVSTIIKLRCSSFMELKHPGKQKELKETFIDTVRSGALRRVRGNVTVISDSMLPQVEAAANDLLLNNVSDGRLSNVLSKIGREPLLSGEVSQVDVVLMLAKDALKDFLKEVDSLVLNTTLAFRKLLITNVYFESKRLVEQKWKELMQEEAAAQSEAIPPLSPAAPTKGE

For `COc1ccccc1C(=O)Nc1ccc2c(c1)C(=O)N(C)C[C@H](OC)[C@@H](C)CN(C(C)=O)[C@@H](C)CO2`, the AC50 [1] was 8.95 µM (active).
With `C[C@@H]1CN([C@@H](C)CO)C(=O)c2cccc(NC(=O)Nc3ccc(C(F)(F)F)cc3)c2O[C@@H]1CN(C)C(=O)Nc1cccc2ccccc12` the AC50 [2] was 10.2 µM (active), the AC50 [3] was 12.8 µM (active) and the AC50 [4] was 25 µM (active). For the same compound, the AC50 [5] was 12.7 µM (active), the AC50 [6] was 22.8 µM (active) and the AC50 [7] was 27.8 µM (active). The AC50 [8] was 12.9 µM (active) and the AC50 [9] was > 52 µM (inactive).
For `COc1ccc(S(=O)(=O)N(C)C[C@H]2OCc3ccccc3-c3c(n(C)c4ccccc34)C(=O)N([C@H](C)CO)C[C@H]2C)cc1`, the AC50 [10] was 6.22 µM (active).
With `COC(=O)C1=C(C)N(Cc2ccccc2C(F)(F)F)C(NCc2ccc(OC)cc2)=NC1c1cccc(Cl)c1` (stereo not drawn) the IC50 [11] was > 96.6 µM (inactive).
For `Cc1ccc(S(=O)(=O)N(C)C[C@@H]2Oc3cc(C#CC4CCCC4)ccc3S(=O)(=O)N([C@@H](C)CO)C[C@H]2C)cc1`, the AC50 [12] was 1.33 µM (active).
In the case of `COc1ccc(C#Cc2ccc([C@@H]3[C@@H](CO)N4CCCCN(C(=O)Nc5ccccc5F)C[C@H]34)cc2)cc1`, the AC50 [13] is reported as 0.8 µM (active), the AC50 [14] is reported as 1.37 µM (active) and the AC50 [15] is reported as 1.89 µM (active). For the same compound, the AC50 [16] was 15.7 µM (active) and the AC50 [17] was 1.45 µM (active).
In the case of `Cc1cccc(C(=O)Nc2nc3ccccc3n2C)c1`, the AbsAC90 [18] is reported as 360.23 µM.
In the case of `Clc1ccc(CCC(Cn2ccnc2)Sc2c(Cl)cccc2Cl)cc1` (stereo not drawn) [BUTOCONAZOLE NITRATE], the IC50 [19] is reported as 0.996 µM (active), the IC50 [20] is reported as 0.221 µM (active) and the IC50 [21] is reported as 2.3 µM (active). For the same compound, the CC50 [22] was 37.6 µM (active), the IC50 [23] was 16 µM (inactive) and the IC50 [24] was > 20 µM (inactive). For the same compound, the IC50 [25] was 3.01 µM (active), the IC50 [26] was 0.841 µM (active) and the IC50 [27] was 2.06 µM (active). For the same compound, the IC50 [28] was 1.69 µM (active), the IC50 [29] was 1.84 µM (active) and the AC50 [30] was < 0.195 µM (active). For the same compound, the IC50 [31] was 7 µM (inactive).
For `COc1cc(-c2ccc(=O)[nH]n2)ccc1OC(F)F` [ZARDAVERINE], the IC50 [32] was > 10 µM (inactive) and the IC50 [33] was > 10 µM (inactive).
